The values that follow come from ChEMBL document CHEMBL6092182, “Enhanced Plasma Stability and Potency of Aryl/Acyloxy Prodrugs of a BTN3A1 Ligand” (ACS Med Chem Lett, 2024).

The term EC50 denotes the concentration that produces a half-maximal response.

The structures appear in SMILES notation.

A short description of series [1]: Prodrug conversion in human plasma assessed as formation of mono-anion metabolite by measuring metabolite peak intensity at 100 uM incubated for 1 hr by LCMS analysis. Type of series: ADME, cell-free.
A short description of series [2]: Prodrug conversion in human K562 cells assessed as formation of mono-anion metabolite by measuring metabolite peak intensity at 100 uM incubated for 1 hr by LCMS analysis. Type of series: functional.
A short description of series [3]: Prodrug conversion in human K562 cells assessed as formation of Ac-monoanion metabolite by measuring metabolite peak intensity at 100 uM incubated for 1 hr by LCMS analysis. Type of series: functional.
Series [4] can be described thus: Stability in human plasma assessed as compound remaining at 100 uM measured after 2 hrs by MS analysis. The following applies: for Stability: 2 h, 100 µM. Type of series: ADME, cell-free.
Series [5] in a line: Stability in mouse plasma assessed as compound remaining measured after 2 hrs by MS analysis. The series is classed as ADME, cell-free.
A short description of series [6]: Prodrug conversion in human K562 cells assessed as formation of di-anion metabolite by measuring metabolite peak intensity at 100 uM incubated for 1 hr by LCMS analysis. The series is classed as functional.
Series [7] is described as follows: Prodrug conversion in human plasma assessed as formation of Ac-monoanion metabolite by measuring metabolite peak intensity at 100 uM incubated for 1 hr by LCMS analysis. Type of series: ADME, cell-free.
Series [8] is described as follows: Stability in human plasma assessed as half life at 100 uM by LCMS analysis. The series is classed as ADME, cell-free.
Series [9] in a line: Prodrug conversion in human plasma assessed as formation of di-anion metabolite by measuring metabolite peak intensity at 100 uM incubated for 1 hr by LCMS analysis. Also on record: unit not given here. Type of series: ADME, cell-free.
A short description of series [10]: Stimulation of IL-2-treated human Vgamma9Vdelta2 T cell proliferation assessed as IFN-gamma release pretreated human […] cells with compound for 1 hr followed by compound washout and addition of washed K562 cells to medium containing Vgamma9Vdelta2 T cells measured after 20 hrs by ELISA. The series is classed as functional, cell-based. On the technique in general: ELISA stands for enzyme-linked immunosorbent assay.

Series [11] can be described thus: Stimulation of IL-2-treated human Vgamma9Vdelta2 T cell proliferation incubated for 72 hrs followed by compound washout measured after 11 days by flow cytometry. The series is classed as functional, cell-based. (A flow cytometer gives signals particle by particle.)
Series [12] can be described thus: Stability in mouse plasma assessed as half life measured after 2 hrs by MS analysis. The series is classed as ADME, cell-free.
A short description of series [13]: Stability in rat plasma assessed as compound remaining measured after 2 hrs by MS analysis. Type of series: ADME, cell-free.

Take `CC(=O)OC/C(C)=C/CCP(=O)(OCOC(=O)c1ccccc1)Oc1ccc(C(C)C)cc1` (stereo unspecified): the Activity in [1] stood at 300; in series [2], 8800; in series [3] it was 180; in [6] it was 870; in [7], 12000; in series [9], 0. Besides, the Stability is reported as 34% in [4] and “Stable” in series [5]. In addition, the t1/2 in [8] is reported as 66 min. Besides, the EC50 is 2.6 nM in series [10] and 0.27 nM in series [11].

In the case of `C/C(=C\CCP(=O)(OCOC(=O)CC1CCOCC1)Oc1cccc2ccccc12)CO` (stereo unspecified), the Activity is listed as 11000 in series [1], 3200 in [2], 690 in series [6] and 0 in series [9]. In addition, the t1/2 in series [12] worked out at 5.6 min; in [8] it was 5.9 min. Further, the Stability in series [4] is recorded as 0%; in series [13], 65%; in series [5], “Stable”. Also, the values for the 50% effective concentration (EC50) in [10] and in [11] were 4.8 nM and 0.37 nM, respectively.

As to `CC(=O)OC/C(C)=C/CCP(=O)(OCOC(=O)CC1CCOCC1)Oc1cccc2ccccc12` (stereo unspecified), the Activity was found to be 2800 in series [1]; 3000 in [2]; 4 in series [3]; 880 in series [6]; 2900 in [7]; 0 in [9]. Moreover, the Stability in series [4] is recorded as 7%; in series [5], “Stable”. The t1/2 in [8] amounted to 15 min. Further, the values for the EC50 in series [10] and in [11] were 5.4 nM and 0.66 nM, respectively.

`COc1ccc(C(=O)OCOP(=O)(CC/C=C(\C)COC(C)=O)Oc2ccc(C(C)C)cc2)cc1` (stereo unspecified): the Activity in series [1] is on record as 830; in series [2], 3900; in [3], 18; in series [6] it was 360; in series [7], 3500; in series [9], 0. The Stability in series [4] is on record as 62%; in series [5], “Stable”. Moreover, the t1/2 in series [8] was determined as 180 min. For the same compound, the EC50 came to 4.1 nM in series [10] and 0.84 nM in [11].

In the case of `C/C(=C\CCP(=O)(OCOC(=O)c1ccccc1)Oc1ccc(C(C)C)cc1)CO` (stereo unspecified), the Activity in series [1] was determined as 7900; in series [2], 10000; in series [6] it was 830; in [9], 0. Moreover, the Stability in [4] is on record as 13%; in [5], “Stable”. Also, the EC50 is 7 nM in series [10] and 0.43 nM in series [11].

In the case of `CC(=O)OC/C(C)=C/CCP(=O)(OCOC(=O)CC1CCCCC1)Oc1ccc(C(C)C)cc1` (stereo unspecified), the Activity stood at 330 in [1]; 3900 in series [2]; 54 in series [3]; 410 in series [6]; 2400 in [7]; 0 in series [9]. In addition, the Stability was 90% in series [4] and “Stable” in [5]. Besides, the t1/2 in series [8] turned out to be 750 min. Besides, the EC50 in [10] was 3 nM; in [11], 0.54 nM.

As to `CC(=O)OC/C(C)=C/CCP(=O)(OCOC(=O)C1CCOCC1)Oc1ccc(C(C)C)cc1` (stereo unspecified), the Activity in [1] turned out to be 3200; in series [2] it was 8200; in series [3], 67; in [6] it was 1700; in series [7], 9900; in series [9] it was 0. Besides, the Stability in series [4] is on record as 0%; in series [5] it was “Stable”. The t1/2 in series [8] turned out to be 16 min. The EC50 stood at 2.2 nM in [10] and 1.2 nM in series [11].

`C/C(=C\CCP(=O)(OCOC(=O)C1CCCCC1)Oc1ccccc1)CO` (stereo unspecified): the remaining at 2 h, 100 µM in series [4] (read-out: Stability) worked out at 0%.

On to `C/C(=C\CCP(=O)(OCOC(=O)CC1CCCCC1)Oc1ccc(C(C)C)cc1)CO` (stereo unspecified), for which the Activity in series [1] is recorded as 4500; in series [2], 4800; in series [6], 500; in [9], 0. In addition, the values for the Stability in series [4] and in series [5] were 80% and “Stable”, respectively. Moreover, the t1/2 in [8] is 94 min. The EC50 worked out at 2.8 nM in [10] and 1.1 nM in series [11].

As for `C/C(=C\CCP(=O)(OCOC(=O)CC1CCOCC1)Oc1ccc(C(C)C)cc1)CO` (stereo unspecified), the Activity came out at 16000 in [1], 6600 in [2], 640 in series [6] and 0 in [9]. The Stability was 0% in series [4] and “Stable” in series [5]. In addition, the EC50 came out at 2.2 nM in series [10] and 0.53 nM in series [11].

Regarding `CC(=O)OC/C(C)=C/CCP(=O)(OCOC(=O)CC1CCOCC1)Oc1ccc(C(C)C)cc1` (stereo unspecified), the Activity was found to be 3000 in series [1]; 6300 in series [2]; 49 in [3]; 1000 in series [6]; 6100 in series [7]; 0 in series [9]. In addition, the figures for the Stability in series [4] and in series [5] were 28% and “Stable”, respectively. In addition, the t1/2 in [8] was found to be 42 min. In addition, the EC50 in series [10] is 3.5 nM; in series [11] it was 0.44 nM.

For the compound `COc1ccc(C(=O)OCOP(=O)(CC/C=C(\C)CO)Oc2ccc(C(C)C)cc2)cc1` (stereo unspecified), the Activity in [1] was found to be 5900; in series [2] it was 6000; in [6], 590; in [9], 0. For the same compound, the Stability is 71% in [4] and “Stable” in [5]. Further, the t1/2 in series [8] amounted to 500 min. In addition, the EC50 amounted to 6.4 nM in series [10] and 1.5 nM in series [11].

Take `C/C(=C\CCP(=O)(OCOC(=O)C1CCOCC1)Oc1ccc(C(C)C)cc1)CO` (stereo unspecified): the Activity in [1] is reported as 13000; in series [2], 18000; in series [6] it was 1500; in [9], 0. The Stability is recorded as 0% in [4] and “Stable” in [5]. Further, the t1/2 in series [8] was determined as 11 min. Moreover, the EC50 in [10] was 0.89 nM; in series [11], 0.97 nM.
